These results are taken from publication PMC9874818 (Archiv Der Pharmazie, 2022).

Data set [1] addresses Furin (human recombinant aa108–715) (Homo sapiens, UniProt P09958). Briefly: biochemical.
Data set [2] has as its target TMPRSS2 (human recombinant) (Homo sapiens, UniProt O15393). It counts as biochemical. The settings on record: ratio of IC50 values.
The next data set concerns the target CATSL (human liver) (Homo sapiens, UniProt P07711). Briefly: biochemical.
Another data set deals with CATSB (human liver) (Homo sapiens, UniProt P07858). Briefly: biochemical.
The conditions of data set [3]: cited from earlier work.

Structures are written as SMILES. pIC50: −log10 of the molar value. Starred links: 1 amine or outer side, 2 acyl side, 3 side chain; linkers in the order of their positions; H or OH if unused. Residues, ends and D or L forms follow the SMILES beside them. CO = O=C([*:1])[*:2]

CATSL (human liver), sequence (P07711 114-333): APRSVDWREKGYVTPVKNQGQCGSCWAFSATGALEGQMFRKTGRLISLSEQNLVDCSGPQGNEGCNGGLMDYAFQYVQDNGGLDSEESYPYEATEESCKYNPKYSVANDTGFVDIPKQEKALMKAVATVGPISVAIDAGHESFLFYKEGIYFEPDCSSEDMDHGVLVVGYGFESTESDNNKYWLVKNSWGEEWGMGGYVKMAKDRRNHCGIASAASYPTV
TMPRSS2 (human recombinant), sequence (O15393 whole entry): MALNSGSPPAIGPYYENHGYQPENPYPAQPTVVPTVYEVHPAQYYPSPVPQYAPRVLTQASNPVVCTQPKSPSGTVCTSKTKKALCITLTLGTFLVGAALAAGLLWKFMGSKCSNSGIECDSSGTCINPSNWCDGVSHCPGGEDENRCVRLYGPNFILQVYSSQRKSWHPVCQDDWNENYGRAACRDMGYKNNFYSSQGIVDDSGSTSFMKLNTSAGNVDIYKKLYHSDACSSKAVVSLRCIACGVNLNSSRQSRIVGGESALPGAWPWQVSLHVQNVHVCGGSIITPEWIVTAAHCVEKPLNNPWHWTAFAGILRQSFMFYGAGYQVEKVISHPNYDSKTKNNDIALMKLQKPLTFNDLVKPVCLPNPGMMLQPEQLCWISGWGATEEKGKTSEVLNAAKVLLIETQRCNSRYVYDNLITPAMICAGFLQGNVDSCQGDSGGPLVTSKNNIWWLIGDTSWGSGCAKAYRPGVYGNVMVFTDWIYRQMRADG
Furin (human recombinant aa108–715), sequence (P09958 108-715): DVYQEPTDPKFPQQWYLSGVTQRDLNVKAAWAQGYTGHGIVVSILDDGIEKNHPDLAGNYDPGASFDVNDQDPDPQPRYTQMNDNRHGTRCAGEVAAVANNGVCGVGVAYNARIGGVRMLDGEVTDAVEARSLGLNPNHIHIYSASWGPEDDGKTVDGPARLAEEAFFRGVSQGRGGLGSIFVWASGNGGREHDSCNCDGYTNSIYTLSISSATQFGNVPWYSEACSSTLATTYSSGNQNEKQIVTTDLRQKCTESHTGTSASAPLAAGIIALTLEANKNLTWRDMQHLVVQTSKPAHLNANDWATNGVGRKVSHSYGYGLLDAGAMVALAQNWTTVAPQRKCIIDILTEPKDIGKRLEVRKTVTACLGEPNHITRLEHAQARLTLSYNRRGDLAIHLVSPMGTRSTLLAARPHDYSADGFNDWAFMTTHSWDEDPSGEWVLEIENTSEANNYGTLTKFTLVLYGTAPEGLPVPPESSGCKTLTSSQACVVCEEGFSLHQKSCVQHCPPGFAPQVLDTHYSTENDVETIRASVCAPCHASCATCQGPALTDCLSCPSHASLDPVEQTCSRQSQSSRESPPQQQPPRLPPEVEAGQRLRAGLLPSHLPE

As usually defined, the pIC50 is −log10 of the IC50, conventionally taken in molar units. `CC(C)[C@H](NC(=O)[C@H](CCCNC(=N)N)NC(=O)N[C@@H](Cc1ccccc1)C(=O)O)C(=O)N[C@H](C=O)CCCNC(=N)N` [antipain, L‐Phe‐CO‐L‐Arg‐L‐Val‐L‐Arg‐H] ({Phe-CO}-Arg-Val-Arg-aldehyde): the pIC50 in data set [1] is 5.38; against CATSL (human liver) it was 8.56; at CATSB (human liver) it was 7.62. Also, in data set [2], the “increase in TMPRSS2 potency over BC-11” value is listed as 2 fold.
With `CN(C)C(=O)COC(=O)Cc1ccc(OC(=O)c2ccc(NC(=N)N)cc2)cc1` [camostat], the plasma half-life result in data set [3] is “approximately an hour or less”.
For `N=C(N)c1ccc2cc(OC(=O)c3ccc(N=C(N)N)cc3)ccc2c1` [nafamostat], in data set [3], the plasma half-life entry is “approximately an hour or less”.
